According to ChEMBL document CHEMBL3046782, “Fungicidial Activity of Benthiavalicarb-isopropyl against Phytophthora infestans and Its Controlling Activity against Late Blight Diseases” (J Pestic Sci, 2005):
≈ marks a conversion by molar mass, not a printed value. Calls of active or inactive are those of the source. The calls are words filed in the database; no cut-off is given here.

Columns and labels:
Phytophthora infestans [1] = assay: Antifungal activity against Phytophthora infestans infected tomato assessed as translaminar activity of controlling late blight at 3 to 100 mg/l after 24 hr; format: functional, organism-based
Phytophthora infestans [2] = assay: Antifungal activity against Phytophthora infestans infected tomato assessed as control of late blight at 10 mg/l after 12 hr by greenhouse test; format: functional, organism-based
Phytophthora infestans [3] = assay: Antifungal activity against Phytophthora infestans in potato tuber slices assessed as inhibition of zoosporangia motility at 1 ug/ml after 3 hr relative to control; format: functional, organism-based
Phytophthora infestans [4] = assay: Antifungal activity against Phytophthora infestans in potato tuber slices assessed as inhibition of zoosporangia release at 100 ug/ml after 3 hr relative to control; format: functional
Phytophthora infestans [5] = assay: Antifungal activity against Phytophthora infestans r1234-2 assessed as inhibition of mycelial growth after 5 to 7 days; format: functional, organism-based; conditions: for IC50: read-out: I50
Phytophthora infestans [6] = assay: Antifungal activity against Phytophthora infestans r1234 assessed as inhibition of mycelial growth after 5 to 7 days; format: functional, organism-based; conditions: for IC50: read-out: I50
Phytophthora infestans [7] = assay: microbe, parasite or virus in culture; format: functional; conditions: Tuber, in Solanum tuberosum, 48 h
Phytophthora infestans [8] = assay: Antifungal activity against Phytophthora infestans in potato tuber slices assessed as inhibition of cystospore germination at 0.1 ug/ml after 6 hr relative to control; format: functional
Phytophthora infestans [9] = assay: Antifungal activity against Phytophthora infestans in potato tuber slices assessed as inhibition of zoosporangia release at 10 ug/ml after 3 hr relative to control; format: functional
Phytophthora infestans [10] = assay: Antifungal activity against Phytophthora infestans C-3 assessed as inhibition of mycelial growth after 5 to 7 days; format: functional, organism-based; conditions: for IC50: read-out: I50
Phytophthora cactorum = assay: Antifungal activity against Phytophthora cactorum IFO 30474 assessed as inhibition of mycelial growth after 5 to 7 days; format: functional, organism-based; conditions: for IC50: read-out: I50
Phytophthora infestans [11] = assay: Antifungal activity against Phytophthora infestans r0-3 assessed as inhibition of mycelial growth after 5 to 7 days; format: functional, organism-based; conditions: for IC50: read-out: I50
Phytophthora infestans [12] = assay: Antifungal activity against Phytophthora infestans in potato tuber slices assessed as inhibition of zoosporangia germination at 1 ug/ml after 6 hr relative to control; format: functional
Phytophthora palmivora = assay: Antifungal activity against Phytophthora palmivora IFO 30285 assessed as inhibition of mycelial growth after 5 to 7 days; format: functional, organism-based; conditions: for IC50: read-out: I50
Phytophthora megasperma = assay: Antifungal activity against Phytophthora megasperma assessed as inhibition of mycelial growth after 5 to 7 days; format: functional, organism-based; conditions: for IC50: read-out: I50
Phytophthora infestans [13] = assay: Antifungal activity against Phytophthora infestans in potato tuber slices assessed as inhibition of zoosporangia release at 1 ug/ml after 3 hr relative to control; format: functional
Phytophthora infestans [14] = assay: Antifungal activity against Phytophthora infestans in potato tuber slices assessed as inhibition of zoosporangia germination at 0.1 ug/ml after 6 hr relative to control; format: functional
Phytophthora infestans [15] = assay: Antifungal activity against Phytophthora infestans in potato tuber slices assessed as inhibition of zoosporangia germination at 10 ug/ml after 6 hr relative to control; format: functional
Phytophthora infestans [16] = assay: Antifungal activity against Phytophthora infestans infected tomato assessed as control of late blight at 25 to 50 g/ha treated 4 to 5 times at 7 day interval; format: functional, organism-based
Phytophthora katsurae = assay: Antifungal activity against Phytophthora katsurae assessed as inhibition of mycelial growth after 5 to 7 days; format: functional, organism-based; conditions: for IC50: read-out: I50
Phytophthora infestans [17] = assay: Antifungal activity against Phytophthora infestans infected tomato assessed as control of late blight at 300 mg/l after 24 hr by greenhouse test; format: functional, organism-based
Phytophthora infestans [18] = assay: Antifungal activity against Phytophthora infestans in potato tuber slices assessed as inhibition of zoosporangia motility at 10 ug/ml after 3 hr relative to control; format: functional, organism-based
Phytophthora infestans [19] = assay: Antifungal activity against Phytophthora infestans in potato tuber slices assessed as inhibition of zoosporangia motility at 100 ug/ml after 3 hr relative to control; format: functional, organism-based
Phytophthora infestans [20] = assay: Antifungal activity against Phytophthora infestans in potato tuber slices assessed as inhibition of cystospore germination at 1 ug/ml after 6 hr relative to control; format: functional
Phytophthora infestans [21] = assay: Antifungal activity against Phytophthora infestans infected tomato assessed as systemic activity of controlling late blight at 100 mg/l after 24 hr; format: functional, organism-based
Phytophthora infestans [22] = assay: Antifungal activity against Phytophthora infestans TK-301 assessed as inhibition of mycelial growth after 5 to 7 days; format: functional, organism-based
Phytophthora infestans [23] = assay: microbe, parasite or virus in culture; format: functional; conditions: Tuber, in Solanum tuberosum, 48 h; remark: listed apart in the source
Phytophthora capsici = assay: Antifungal activity against Phytophthora capsici IFO 8386 assessed as inhibition of mycelial growth after 5 to 7 days; format: functional, organism-based; conditions: for IC50: read-out: I50
Phytophthora infestans [24] = assay: Antifungal activity against Phytophthora infestans infected potato plant assessed as control of late blight at 50 to 75 g/ha treated 4 to 5 times at 7 day interval; format: functional, organism-based
Phytophthora infestans [25] = assay: microbe, parasite or virus in culture; format: functional; conditions: Tuber, in Solanum tuberosum, 48 h; remark: listed apart in the source
Phytophthora nicotianae = assay: Antifungal activity against Phytophthora nicotianae IFO 30595 assessed as inhibition of mycelial growth after 5 to 7 days; format: functional, organism-based; conditions: for IC50: read-out: I50
Phytophthora porri = assay: Antifungal activity against Phytophthora porri IFO 30416 assessed as inhibition of mycelial growth after 5 to 7 days; format: functional, organism-based; conditions: for IC50: read-out: I50
Phytophthora infestans [26] = assay: Antifungal activity against Phytophthora infestans in potato tuber slices assessed as inhibition of cystospore germination at 10 ug/ml after 6 hr relative to control; format: functional

CC(C)OC(=O)N[C@H](C(=O)N[C@H](C)c1nc2ccc(F)cc2s1)C(C)C [BENTHIAVALICARB-ISOPROPYL]
Activity (Phytophthora infestans [1]): Active | Activity (Phytophthora infestans [2]): Active | inhibition (Phytophthora infestans [3]): inactive | inhibition at 100 µg/mL (Phytophthora infestans [4]): 45.5% | MIC (Phytophthora infestans [5]): 0.1 µg/mL (≈ 0.262 µM) | IC50 (Phytophthora infestans [5]): 0.03 µg/mL (≈ 0.0786 µM) | MIC (Phytophthora infestans [6]): 0.1 µg/mL (≈ 0.262 µM) | IC50 (Phytophthora infestans [6]): 0.02 µg/mL (≈ 0.0524 µM) | inhibition at 1 µg/mL (Phytophthora infestans [7]): 96.8% | inhibition at 0.1 µg/mL (Phytophthora infestans [8]): 95.5% | inhibition at 10 µg/mL (Phytophthora infestans [9]): 0% | MIC (Phytophthora infestans [10]): 0.1 µg/mL (≈ 0.262 µM) | IC50 (Phytophthora infestans [10]): 0.03 µg/mL (≈ 0.0786 µM) | MIC (Phytophthora cactorum): 0.03 µg/mL (≈ 0.0786 µM) | IC50 (Phytophthora cactorum): 0.03 µg/mL (≈ 0.0786 µM) | MIC (Phytophthora infestans [11]): 0.03 µg/mL (≈ 0.0786 µM) | IC50 (Phytophthora infestans [11]): 0.03 µg/mL (≈ 0.0786 µM) | inhibition at 1 µg/mL (Phytophthora infestans [12]): 100% | MIC (Phytophthora palmivora): 0.1 µg/mL (≈ 0.262 µM) | IC50 (Phytophthora palmivora): 0.02 µg/mL (≈ 0.0524 µM) | MIC (Phytophthora megasperma): 0.1 µg/mL (≈ 0.262 µM) | IC50 (Phytophthora megasperma): 0.02 µg/mL (≈ 0.0524 µM) | inhibition at 1 µg/mL (Phytophthora infestans [13]): 0% | inhibition at 0.1 µg/mL (Phytophthora infestans [14]): 98.6% | inhibition at 10 µg/mL (Phytophthora infestans [15]): 100% | Activity (Phytophthora infestans [16]): Active | MIC (Phytophthora katsurae): 0.03 µg/mL (≈ 0.0786 µM) | IC50 (Phytophthora katsurae): 0.04 µg/mL (≈ 0.105 µM) | Activity (Phytophthora infestans [17]): Active | inhibition (Phytophthora infestans [18]): inactive | inhibition (Phytophthora infestans [19]): inactive | inhibition at 1 µg/mL (Phytophthora infestans [20]): 100% | Activity (Phytophthora infestans [21]): Active | MIC (Phytophthora infestans [22]): 0.03 µg/mL (≈ 0.0786 µM) | IC50 (Phytophthora infestans [22]; read-out: I50): 0.03 µg/mL (≈ 0.0786 µM) | inhibition at 10 µg/mL (Phytophthora infestans [23]): 97.6% | MIC (Phytophthora capsici): 0.03 µg/mL (≈ 0.0786 µM) | IC50 (Phytophthora capsici): 0.01 µg/mL (≈ 0.0262 µM) | Activity (Phytophthora infestans [24]): Active | inhibition at 0.1 µg/mL (Phytophthora infestans [25]): 45.2% | MIC (Phytophthora nicotianae): 0.1 µg/mL (≈ 0.262 µM) | IC50 (Phytophthora nicotianae): 0.05 µg/mL (≈ 0.131 µM) | MIC (Phytophthora porri): 0.1 µg/mL (≈ 0.262 µM) | IC50 (Phytophthora porri): 0.02 µg/mL (≈ 0.0524 µM) | inhibition at 10 µg/mL (Phytophthora infestans [26]): 100%

COCC(=O)N(c1c(C)cccc1C)C(C)C(=O)OC (configuration not stated) [METALAXYL]
MIC (Phytophthora infestans [5]): > 10 µg/mL | IC50 (Phytophthora infestans [5]): 0.05 µg/mL (≈ 0.179 µM) | MIC (Phytophthora infestans [6]): 0.3 µg/mL (≈ 1.07 µM) | IC50 (Phytophthora infestans [6]): 0.09 µg/mL (≈ 0.322 µM) | MIC (Phytophthora infestans [10]): 3 µg/mL (≈ 10.7 µM) | IC50 (Phytophthora infestans [10]): 0.15 µg/mL (≈ 0.537 µM) | MIC (Phytophthora cactorum): 0.3 µg/mL (≈ 1.07 µM) | IC50 (Phytophthora cactorum): 0.03 µg/mL (≈ 0.107 µM) | MIC (Phytophthora infestans [11]): > 10 µg/mL | IC50 (Phytophthora infestans [11]): 0.21 µg/mL (≈ 0.752 µM) | MIC (Phytophthora palmivora): > 3 µg/mL | IC50 (Phytophthora palmivora): 0.54 µg/mL (≈ 1.93 µM) | MIC (Phytophthora megasperma): > 100 µg/mL | IC50 (Phytophthora megasperma): 0.34 µg/mL (≈ 1.22 µM) | MIC (Phytophthora katsurae): > 100 µg/mL | IC50 (Phytophthora katsurae): 0.46 µg/mL (≈ 1.65 µM) | MIC (Phytophthora capsici): > 3 µg/mL | IC50 (Phytophthora capsici): 0.62 µg/mL (≈ 2.22 µM) | MIC (Phytophthora nicotianae): > 3 µg/mL | IC50 (Phytophthora nicotianae): 0.08 µg/mL (≈ 0.286 µM) | MIC (Phytophthora porri): > 3 µg/mL | IC50 (Phytophthora porri): 0.08 µg/mL (≈ 0.286 µM)
